Test results as given in patent publication US20050238580A1 (priority 2002, published 2005).

Target: T1, intestinal lactase (Rattus norvegicus, UniProt Q02401)
T1 construct: hydrolysis of the 4-galactosyl-xylose administered is detected by the action of intestinal lactase; from tissue; host or cells: small-intestinal mucous membrane of living unweaned rats (in vivo); activity also measured post mortem in mucosa homogenate
T1 sequence (Q02401 868-1928): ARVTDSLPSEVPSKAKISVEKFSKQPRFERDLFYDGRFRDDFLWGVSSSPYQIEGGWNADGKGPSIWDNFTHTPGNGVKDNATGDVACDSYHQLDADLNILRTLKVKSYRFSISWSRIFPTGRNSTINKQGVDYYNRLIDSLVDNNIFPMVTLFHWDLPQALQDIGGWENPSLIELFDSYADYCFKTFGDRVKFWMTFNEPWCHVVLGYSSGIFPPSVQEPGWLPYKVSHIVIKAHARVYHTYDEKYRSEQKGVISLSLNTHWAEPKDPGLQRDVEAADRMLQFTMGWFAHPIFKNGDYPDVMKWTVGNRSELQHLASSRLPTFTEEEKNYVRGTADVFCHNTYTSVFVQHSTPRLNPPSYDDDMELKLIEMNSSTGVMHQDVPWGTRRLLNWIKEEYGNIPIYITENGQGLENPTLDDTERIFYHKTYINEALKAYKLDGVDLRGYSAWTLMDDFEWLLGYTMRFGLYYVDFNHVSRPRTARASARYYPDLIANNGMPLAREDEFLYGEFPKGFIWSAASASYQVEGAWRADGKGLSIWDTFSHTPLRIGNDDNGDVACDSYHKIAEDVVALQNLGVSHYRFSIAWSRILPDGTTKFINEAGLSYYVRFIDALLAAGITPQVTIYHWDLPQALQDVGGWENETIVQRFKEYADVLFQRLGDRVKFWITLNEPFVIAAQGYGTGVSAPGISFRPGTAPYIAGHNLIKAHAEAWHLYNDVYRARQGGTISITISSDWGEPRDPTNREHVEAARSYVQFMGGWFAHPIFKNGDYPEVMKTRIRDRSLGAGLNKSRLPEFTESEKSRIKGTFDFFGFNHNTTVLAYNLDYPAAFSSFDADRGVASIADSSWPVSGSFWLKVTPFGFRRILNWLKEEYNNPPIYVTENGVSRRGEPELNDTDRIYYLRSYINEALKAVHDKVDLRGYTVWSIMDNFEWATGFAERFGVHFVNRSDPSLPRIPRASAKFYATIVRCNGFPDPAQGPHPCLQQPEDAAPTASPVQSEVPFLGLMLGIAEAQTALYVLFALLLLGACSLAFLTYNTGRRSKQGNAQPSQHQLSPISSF
Test: Xylose in blood plasma after oral 4-galactosyl-xylose versus intestinal lactase activity in unweaned rats
Type: in vivo
Source text: Correlation between the excretion of xylose in urine and the presence of xylose in blood after oral administration of 4-galactosyl-xylose with intestinal lactase activity. This has been shown in unweaned rats by comparing during the growth of these animals the amount of xylose in plasma analyzed after orally administering to them 4-galactosyl-xylose with specific lactase activity evaluated postmortem in the intestinal mucous membrane. For this purpose, a group comprised of 60 12-day old unweaned rats belonging to two litters fasted for 6 hours by being separated from the mother. After this period of time passed, basal blood was extracted from each animal by means of a heart puncture and each rat was immediately administered 8 mg of 4-galactosyl-xylose diluted in 0.3 ml of distilled water by using an intraesophageal probe. 3 hours after the disaccharide was administered another blood sample was extracted. The blood plasma or supernatant fraction was obtained by centrifuging this sample and the xylose therein was titrated by calorimetric analysis with fluoroglucinol and using the plasma of the basal blood as the target. Immediately after the blood was extracted, four of the animals were sacrificed and the lactase activity in the intestinal mucous membrane was directly evaluated in the same manner as the one described in Example 1. […]

linear correlation coefficient (r) between xylose in blood plasma and intestinal lactase activity (unweaned rats aged 12 to 35 days, 8 mg oral, plasma 3 hours after administration): 0.98
SMILES: OCC1O[C@@H](O[C@@H]2COC(O)C(O)[C@H]2O)C(O)[C@@H](O)[C@H]1O (some centres unmarked)
dose dependence of amount of xylose in plasma (unweaned rats, oral doses between 4 and 16 mg in 0.3 ml of water): increases with the increase of the amount of 4-galactosyl-xylose
